For this assay, the system named is PBL of SLE patients. In words: Proliferative response of PBL of SLE patients to the human 16/6Id mAb. The format is cell-based. Particulars: for Percent Inhibition of proliferation of PBL: highest positive inhibition, peptide 50 or 100 μg/well. The method, then:
Induction and treatment of experimental SLE. In order to induce experimental SLE, BALB/c mice were immunized with 1-2 μg of the human mAb 16/6Id and boosted 3 weeks later. For the prevention of experimental SLE, mice were given hCDR1 or hCDR3 (mCDR1 or revmCDR1 as control peptide in Example 12) intravenously (i.v.) or s.c. concomitant with the immunization, and were injected weekly thereafter for 5 weeks. Treatment of an established disease started three and a half months following disease induction with the 16/6Id, when clinical manifestations were already observed. In Example 12, mice received 10 weekly injections (i.v. or s.c.) of mCDR1 or revmCDR1 at a dose of 100 μg/mouse. Prevention and treatment of SLE-like disease in (NZB×NZW)F1 mice with the hCDR1 or mCDR1 peptide. For prevention of SLE, mice at the age of 2 months, before disease manifestations are observed, were injected s.c. with hCDR1 (or mCDR1 in Example 12, 250 μg/mouse) once a week for 10 weeks. To treat an established disease, mice at the age of 5-7 months were injected with hCDR1 (in Example 12, mCDR1 s.c., 250 μg/mouse) once a week for 10 weeks. Proliferative Responses. PBL were isolated from heparinized venous blood by Ficoll-Hypaque (Pharmacia) density-gradient centrifugation. All assays were performed, in triplicate, in flat-bottomed microtiter plates (Falcon, Becton Dickinson, Oxmard, Calif., USA) in which 2×10^5 PBL were cultured in enriched RPMI-1640 as described (Dayan et al., 2000). The PBL were exposed to various concentrations (0.1-40 μg/well) of the human anti-DNA 16/6Id mAb with and without the addition of the various CDR-based peptides at a concentration of at least 10-fold excess over that of the 16/6Id. Phytohemagglutinin (PHA; 2 μg/well) was used as a control for culture conditions at each experiment. The cultures were incubated in 7.5% CO2 at 37° C. for 6 days. Eighteen hours before the cells were harvested, [^3H]-thymidine (0.5μ Ci of 5 Ci/mmol) (Nuclear Research Center, Negev, Israel) was added to all cultures. Results are expressed as the mean thymidine incorporation in counts per minute (CPM) of triplicate culture±SD, or as stimulation index (S.I.; the ratio of mean CPM at the optimal concentration of the human 16/6Id to the mean CPM in the presence of medium alone). A S.I.≧2 was considered a positive response (Dayan et al., 2000). Inhibition (the ratio of mean CPM in the presence of the 16/6Id and various CDR-based peptides to the mean CPM with the 16/6Id without the CDR-based peptide) above 50% was considered positive. Induction of Cytokine Production. Mice that were immunized with the human 16/6Id mAb and either treated or not with the CDR-based peptide, were killed at different periods during or after treatment with the peptide. Splenocytes and lymph node cells (LNC) were harvested and incubated (5×10^6/ml) in the presence of the 16/6Id. Supernatants were collected after 48 and 72 h. Assessment of Cytokines in the Supernatants. Supernatants were collected 48 hours following the initiation of the cultures and stored at −70° C. Measurements of IL-2, IL-10, IFN-γ, and TNF-α were performed by ELISA by using the relevant standards, capture and detecting Abs (Pharmingen) according to the manufacturer's instructions. TGF-β was determined by an ELISA. Briefly, plates were coated with the recombinant human TGF-β1 sRIII/Fc chimera (R & D Systems Inc., Minneapolis, Minn., USA), and the second Ab used was the biotinylated anti-human TGF-β1 antibody (R & D Systems Inc.). The substrate solution used was TMB color Reagent (Helix Diagnostics, West Sacramento, Calif.), and enzyme activity was evaluated by using 570- and 630-nm filters. Detection of SLE-Associated Clinical and Pathological Manifestations. Proteinuria was measured semiquantitatively by using Combistix kit (Ames Division, Bayer Diagnostics, Newbury, U.K.). White blood cells (WBC, for leukopenia) were counted after a 10-fold dilution of heparinized blood in distilled water containing 1% acetic acid (vol/vol). […]

As for “YYCARGLLRGGWNDVDYYGMDV (Human) [hCDR3, peptide based on the CDR3 of the heavy chain of the human 16/6Id mAb]”, the “inhibition of the proliferative responses of PBL to the human 16/6Id mAb” value (PBL of one SLE patient, FIG. 6) is “inhibited efficiently”. The “inhibition of the proliferative responses of PBL to human 16/6Id mAb” value (PBL of one SLE patient, FIG. 7, reversed murine peptides as controls) was “did inhibit efficiently”. Besides, the “Percent Inhibition of proliferation of PBL” value by setting is: (SLE patient 1) less than 50%; (SLE patient 2 (M. D.)) 75%; (SLE patient 3) less than 50%; (SLE patient 4) less than 50%; (SLE patient 5) 87.5%; (SLE patient 6) 80%. The “Percent Inhibition of proliferation of PBL” value by setting is: (SLE patient 7) 70.4%; (SLE patient 8 (S. D.)) 56%; (SLE patient 9) 65%; (SLE patient 10) 71.8%; (SLE patient 11) 72%; (SLE patient 12) 86%. Further, the “Percent Inhibition of proliferation of PBL” value reads like this: (SLE patient 13) 64%; (SLE patient 14) 74%; (SLE patient 15) 69%; (SLE patient 16) 68%; (SLE patient 17) 77.8%; (SLE patient 18) less than 50%. For the same sequence, where the note is “SLE patient 19”, the “Percent Inhibition of proliferation of PBL” value is on record as 60.8%. Moreover, the “Percent Inhibition of proliferation of PBL, Mean ± SD” value (mean over the 19 responder SLE patients (positive inhibitions, above 50%)) was 71.82 ± 8.44%. Moreover, the “responders whose PBL proliferation was inhibited (inhibition above 50% considered positive)” value (of the 19 responder SLE patients tested) is listed as 78.9%.

The values above are taken from patent US7858738B2, “Synthetic human peptides and pharmaceutical compositions comprising them for the treatment of systemic lupus erythematosus” (Yeda Research and Development Co., Ltd., priority 2001, dated 2010).
